Where “and” joins values, the source holds several entries; their conditions need not be identical. Equal entries are not always repeated.
Key:
[1] = system: murine B16 melanoma; test: Antitumor effect in murine B16 melanoma model, tumor size and tumor weight (Example 2); format: in vivo, C57BL/6 mice; details: for Tumor volumes (cm^3) on Day 15: Length × Width × Width/2; for Tumor measurements L / Tumor measurements W / Tumor volumes: DTIC 50 mg/kg
Experimental: As per aseptic tissue culture procedures, one vial of B16 melanoma cells (supplied by Cell Culture Center of CAMS) was thawed and centrifuged at 1000 rpm, 20-25° C. for 5 minutes. The cell pellets were suspended in 0.1-0.5 mL normal saline (NS) and subcutaneously injected into the right axilla of each mouse (approximately 1×10^6 cells/mouse). When the tumor diameter was 1 cm approximately (measured by vernier caliper), the animals were euthanized with CO2 asphyxiation and the tumor was excised. Tumor cells were suspended in normal saline as previously described and the cell adaptation cycle was repeated once.
On Day 0, 1×10^6 B16 cells in a volume of 0.1 mL normal saline were subcutaneously injected into the right axillary area of the mouse. The day of tumor inoculation was defined as Day 0.
Dosing was initiated on Day 1.
Observations were recorded daily for mortality and moribundity. […] The tumors were excised, separated, and weighed.
Tumor volume was calculated using the following formula: Tumor Volume=Length×Width×Width/2 Tumor volume inhibition rate (IR) was calculated according to the formula: IR(TV)=(TVvehicle−TVdrug treated)/TVvehicle×100% TV is the tumor volume on the day of measurement.
The antitumor effect of the test article was also evaluated by tumor weight. The tumor weight of each mouse was recorded after euthanasia, and the inhibition rate of tumor weight was calculated according to the formula: IR(TW)=(Tumor weightvehicle−Tumor weightdrug treated)/Tumor weightvehicle×100%

[2] = system: B16 melanoma; test: B16 melanoma tumor growth, tumor weight and survival in C57/Bl6 mice, i.p. treatment (Example 1); format: in vivo; details: DTIC 50 mg/kg i.p.
Experimental: Tumors were induced by injecting 1×10^6 B16 melanoma cells subcutaneously in the hind leg of C57/Bl6 syngeneic mice. Mice were randomized into 5 groups of 10 animals and treated with SCV-07 at doses of 0.001, 0.01, or 0.10 mg/kg administered daily i.p. for 3 consecutive days for 2 weeks, starting 3 days after tumor implantation. Control groups were treated with saline or dacarbazine (DTIC) at a dose of 50 mg/kg i.p. for 3 days. Tumor growth was assessed every 3 days by a caliper and tumor weight was measured upon death.
Mice were injected with B16 melanoma cells and divided into 5 groups of 10 mice each. Control mice were given injections of saline or dacarbazine (DTIC). The effects of different doses of SCV-07 were examined with respect to tumor growth rate and survival time.

[3] = DTIC 50 mg/kg (Group 2), Day 15, individual animals F1-F5, M1-M5

In the case of `CN(C)/N=N/c1[nH]cnc1C(N)=O` [DTIC, Dacarbazine, reference compound], the “Tumor volumes (cm^3) on Day 15” value ([1]; DTIC 50 mg/kg (Group 2), Day 15, individual animals F1-F5, M1-M5, female animals) is reported as 0.36 cm^3 and 0.15 cm^3 and 0.11 cm^3 and 0.01 cm^3, the “Tumor volumes (cm^3) on Day 15” value ([1]; DTIC 50 mg/kg (Group 2), Day 15, individual animals F1-F5, M1-M5, male animals) is reported as 0.03 cm^3 (2×) and 0.06 cm^3 and 0.17 cm^3 and 0.01 cm^3 and the “Tumor measurements (cm) on Day 15, L” value [1, 3] is reported as 0.3 cm (2×) and 0.4 cm (2×) and 0.7 cm and 0.9 cm and 0.5 cm and 1.2 cm and 0.6 cm. For the same compound, the “Tumor measurements (cm) on Day 15, W” value [1, 3] was 0.3 cm (2×) and 0.4 cm (2×) and 0.7 cm and 0.5 cm (2×) and 0.9 cm and 0.6 cm, the “Tumor weights (g) on Day 17” value ([1]; DTIC 50 mg/kg (Group 2), Day 17, individual animals F1-F5, M1-M5, female animals) was 0.70 g and 0.29 g and 0.98 g and 0.78 g and 0.5 g and the “Tumor weights (g) on Day 17” value ([1]; DTIC 50 mg/kg (Group 2), Day 17, individual animals F1-F5, M1-M5, male animals) was 0.46 g and 0.54 g and 0.37 g and 0.915 g and 0.18 g. For the same compound, the “Tumor Volume (Mean ± SD)” value ([1]; Day 3, DTIC 50 mg/kg/day, not measurable defined as 0) was 0 cm^3, the “Tumor Volume (Mean ± SD)” value ([1]; Day 6, DTIC 50 mg/kg/day, not measurable defined as 0) was 0 cm^3 and the “IR (tumor volume inhibition rate)” value ([1]; Day 9, DTIC 50 mg/kg/day) was 96.9%. For the same compound, the “Tumor Volume (Mean ± SD)” value ([1]; Day 9, DTIC 50 mg/kg/day) was 0.001 ± 0.004 cm^3, the “Tumor measurements L” value ([1]; Day 9, mouse F2) was 0.3 cm and the “Tumor measurements W” value ([1]; Day 9, mouse F2) was 0.3 cm. For the same compound, the Tumor volumes ([1]; Day 9, mouse F2) was 0.01 cm^3, the “IR (tumor volume inhibition rate)” value ([1]; Day 12, DTIC 50 mg/kg/day) was 98.8% and the “Tumor Volume (Mean ± SD)” value ([1]; Day 12, DTIC 50 mg/kg/day) was 0.009 ± 0.020 cm^3. The “Tumor measurements L” value ([1]; Day 12, mouse F1) was 0.3 cm, the “Tumor measurements W” value ([1]; Day 12, mouse F1) was 0.3 cm and the Tumor volumes ([1]; Day 12, mouse F1) was 0.01 cm^3. For the same compound, the “Tumor measurements L” value ([1]; Day 12, mouse F3) was 0.1 cm, the “Tumor measurements W” value ([1]; Day 12, mouse F3) was 0.1 cm and the Tumor volumes ([1]; Day 12, mouse F3) was 5E−04 cm^3. For the same compound, the “Tumor measurements L” value ([1]; Day 12, mouse F4) was 0.3 cm, the “Tumor measurements W” value ([1]; Day 12, mouse F4) was 0.3 cm and the Tumor volumes ([1]; Day 12, mouse F4) was 0.01 cm^3. For the same compound, the “Tumor measurements L” value ([1]; Day 12, mouse F5) was 0.1 cm, the “Tumor measurements W” value ([1]; Day 12, mouse F5) was 0.1 cm and the Tumor volumes ([1]; Day 12, mouse F5) was 5E−04 cm^3. For the same compound, the “Tumor measurements L” value ([1]; Day 12, mouse M2) was 0.5 cm, the “Tumor measurements W” value ([1]; Day 12, mouse M2) was 0.5 cm and the Tumor volumes ([1]; Day 12, mouse M2) was 0.06 cm^3. The “IR (tumor volume inhibition rate)” value ([1]; Day 15, DTIC 50 mg/kg/day) was 95.1%, the “Tumor Volume (Mean ± SD)” value ([1]; Day 15, DTIC 50 mg/kg/day) was 0.095 ± 0.112 cm^3 and the “IR (inhibition rate of tumor weight)” value ([1]; Day 17, DTIC 50 mg/kg/day) was 85.0%. The “Tumor Weight (Mean ± SD)” value ([1]; Day 17, DTIC 50 mg/kg/day) was 0.57 ± 0.27 g, the “MEAN TUMOR VOLUME” value ([2]; DAY 10 after tumor inoculation) was 480 ± 13 mm^3 and the “MEAN TUMOR VOLUME” value ([2]; DAY 17 after tumor inoculation) was 545 ± 170 mm^3. For the same compound, the “DAY 24 % of control (inhibition in tumor growth)” value ([2]; DAY 24) was 19%, the “MEAN TUMOR VOLUME” value ([2]; DAY 24 after tumor inoculation) was 760 ± 220 mm^3 and the “mean tumor weight lower” value [2] was 15%.

— patent US8163702B2, “Treatment of melanoma” (SciClone Pharmaceuticals, Inc., priority 2006, dated 2012)
